# Data published in patent EP4790066A1, “GLP-1R/GIPR/GCGR TRIPLE AGONIST ANALOGUE AND USE THEREOF” (Shenzhen Bay Laboratory, priority 2023, dated 2025).
# *1 amine or outer side, *2 acyl side, *3 side chain or, on linkers, in order; H or OH if unused. Where a SMILES comes first, the peptide text is derived from it. Bridges are numbered along the chain shown (N, C = ends). [ ]: non-standard residue; d: D form. X1 = O=C(O)CCCCCCCCCCCCCCCCCCC(=O)N[C@@H](CCCCNC(=O)COCCOCCNC(=O)COCCOCCNC(=O)CCC(=O)N(CCNC(=O)C[*:1])CCNC(=O)C[*:2])C(=O)O; Phe(2-F) = N[C@@H](Cc1ccccc1F)C(=O)O; Iva = CC[C@](C)(N)C(=O)O; Aib = CC(C)(N)C(=O)O
# Tests used:
# GCGR = biological target: T1, GCGR (Homo sapiens, UniProt P47871); test: cAMP method (HTRF cAMP detection kit), HEK293/pGM-CREB-L-Luc/GCG pool; assay type: cell-based; conditions: read-out: EC50 (pM) for each receptor GCGR
# T1 construct: expressed in transfected cells
# T1 sequence (P47871 26-477, species assumed): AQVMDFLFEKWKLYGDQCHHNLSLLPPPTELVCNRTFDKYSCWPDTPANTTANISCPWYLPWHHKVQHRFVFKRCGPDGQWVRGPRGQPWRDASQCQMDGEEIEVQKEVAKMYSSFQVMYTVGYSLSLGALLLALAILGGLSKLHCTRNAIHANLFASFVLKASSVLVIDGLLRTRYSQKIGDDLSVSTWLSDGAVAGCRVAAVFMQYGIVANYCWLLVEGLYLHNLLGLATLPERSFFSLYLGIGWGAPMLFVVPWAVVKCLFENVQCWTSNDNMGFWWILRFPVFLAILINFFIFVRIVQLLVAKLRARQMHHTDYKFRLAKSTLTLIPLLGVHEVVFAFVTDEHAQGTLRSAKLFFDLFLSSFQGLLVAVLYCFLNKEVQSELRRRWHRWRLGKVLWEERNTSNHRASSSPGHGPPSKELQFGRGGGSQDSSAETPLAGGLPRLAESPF
# GLP-1R = biological target: T2, GLP-1R (Homo sapiens, UniProt P43220); test: CreLuc method (CRE-luciferase reporter), HEK293/pGM-CREB-L-Luc/GLP-1R pool; assay type: cell-based; conditions: 6 h incubation, read-out: EC50 (pM) for each receptor GLP-1R
# T2 construct: expressed in transfected cells
# T2 sequence (P43220 24-463, species assumed): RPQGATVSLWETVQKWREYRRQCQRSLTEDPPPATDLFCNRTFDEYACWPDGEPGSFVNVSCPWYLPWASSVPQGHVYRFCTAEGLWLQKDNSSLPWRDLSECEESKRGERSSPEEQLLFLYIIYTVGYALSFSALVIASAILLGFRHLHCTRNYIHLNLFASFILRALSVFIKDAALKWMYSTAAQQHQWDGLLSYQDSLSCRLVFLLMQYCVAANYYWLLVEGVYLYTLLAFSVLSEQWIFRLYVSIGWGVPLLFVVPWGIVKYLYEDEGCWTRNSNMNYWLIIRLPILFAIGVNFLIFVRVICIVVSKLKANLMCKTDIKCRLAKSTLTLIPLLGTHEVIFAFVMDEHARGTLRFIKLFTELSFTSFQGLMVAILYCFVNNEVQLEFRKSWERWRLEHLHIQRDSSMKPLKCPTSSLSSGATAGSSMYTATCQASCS
# In short: (§1)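 Stable HEK293 pools co-expressing each receptor with a CRE-luciferase reporter were plated at 20,000 cells/well in freestyle medium and treated with compound dilution series for 6 h at 37 °C. Luminescence was read with ONE-GLO to derive EC50.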
# GIPR [1] = biological target: T3, GIPR (Homo sapiens, UniProt P48546); test: cAMP method (HTRF cAMP detection kit), HEK293/pGM-CREB-L-Luc/GIP pool; assay type: cell-based; conditions: read-out: EC50 (pM) for each receptor GIPR
# T3 construct: expressed in transfected cells
# T3 sequence (P48546 22-466): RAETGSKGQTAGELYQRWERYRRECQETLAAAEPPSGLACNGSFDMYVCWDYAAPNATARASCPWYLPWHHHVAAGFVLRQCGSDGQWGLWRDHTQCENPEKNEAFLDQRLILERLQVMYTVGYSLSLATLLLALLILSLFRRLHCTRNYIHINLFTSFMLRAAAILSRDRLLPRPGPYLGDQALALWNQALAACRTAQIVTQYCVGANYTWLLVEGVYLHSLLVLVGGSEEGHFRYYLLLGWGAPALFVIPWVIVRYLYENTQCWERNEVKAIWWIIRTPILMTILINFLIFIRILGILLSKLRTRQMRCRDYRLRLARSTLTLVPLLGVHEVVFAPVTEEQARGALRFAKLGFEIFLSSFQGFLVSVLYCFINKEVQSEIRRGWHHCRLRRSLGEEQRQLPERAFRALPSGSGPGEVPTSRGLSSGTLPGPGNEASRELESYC
# in vivo = test: in vivo; parameters: species or system adult male cynomolgus monkeys; conditions: male, cynomolgus monkey, 0.2 mg/kg
# Method: The pharmacokinetic behavior of TG52 in non-rodents was tested. The specific steps are as follows:
# The target peptide derivative TG52 to be tested was administered to adult male cynomolgus monkeys via subcutaneous and intravenous injections (0.2 mg/kg, with PBS as the drug vehicle) as a single dose, respectively. Whole blood samples were collected from the jugular vein or other appropriate vein at the following time points after administration: for SC, 0 min, 30 min, 1 h, 3 h, 7 h, 24 h, 48 h, 72 h, 120 h, 168 h, 216 h, and 264 h; for IV, 0 min, 5 min, 30 min, 1 h, 3 h, 7 h, 24 h, 48 h, 72 h, 120 h, 168 h, 216 h, and 264 h. 0.2 mL of blood was collected and transferred into a labeled EDTA-K2 anticoagulant tube. The tube was gently inverted to ensure thorough mixing of the anticoagulant (EDTA-K2) with the blood and immediately placed on wet ice. Plasma separation was performed as soon as possible by centrifugation under the following conditions: 4°C, 6800xg, for 6 min. The plasma samples were stored in a refrigerator at no higher than -20°C and used for analysis when needed. Analysis of the drug content in the blood samples was performed using the analytical method described above. Table 5C: Pharmacokinetic parameters of TG52 in cynomolgus monkeys
# GIPR [2] = biological target: T3, GIPR; test: CreLuc method (CRE-luciferase reporter), HEK293/pGM-CREB-L-Luc/GIPR pool; assay type: cell-based; conditions: 6 h incubation, read-out: EC50 (pM) for each receptor GIPR
# In short: as §1
compound,measurement,setting,value
CC[C@H](C)[C@@H]1NC(=O)[C@H](Cc2ccccc2)NC(=O)[C@@H](NC(=O)C(C)(C)NC(=O)[C@H](CCC(N)=O)NC(=O)[C@H](C)NC(=O)[C@H](CCCCNC(C)=O)NC(=O)[C@H](CCCCN)NC(=O)[C@H](CC(=O)O)NC(=O)[C@H](CC(C)C)NC(=O)[C@](C)(CC)NC(=O)[C@@H](NC(=O)[C@H](CO)NC(=O)[C@H](Cc2ccc(O)cc2)NC(=O)[C@H](CC(=O)O)NC(=O)[C@H](CO)NC(=O)[C@@H](NC(=O)[C@H](Cc2ccccc2F)NC(=O)[C@@H](NC(=O)CNC(=O)[C@H](CCC(N)=O)NC(=O)C(C)(C)NC(=O)[C@@H](N)Cc2ccc(O)cc2)[C@@H](C)O)[C@@H](C)O)[C@@H](C)CC)CSCC(=O)NCCN(C(=O)CCC(=O)NCCOCCOCC(=O)NCCOCCOCC(=O)NCCCC[C@H](NC(=O)CCCCCCCCCCCCCCCCCCC(=O)O)C(=O)O)CCNC(=O)CSC[C@@H](C(=O)NCC(=O)NCC(=O)N2CCC[C@H]2C(=O)N[C@@H](CO)C(=O)N[C@@H](CO)C(=O)NCC(=O)N[C@@H](C)C(=O)N2CCC[C@H]2C(=O)N2CCC[C@H]2C(=O)N2CCC[C@H]2C(=O)N[C@@H](CO)C(N)=O)NC(=O)[C@H](CC(C)C)NC(=O)[C@H](CC(C)C)NC(=O)[C@H](Cc2ccc(O)cc2)NC(=O)[C@H](CCC(=O)O)NC1=O [TG52] (H-Y[Aib]QGT[Phe(2-F)]TSDYSI[Iva]LDKK(Ac)AQ[Aib]CFIEYLLCGGPSSGAPPPS-NH2; linker 21-28 via X1),EC50,GCGR,8.8 pM
same,EC50,GLP-1R,112 pM
same,EC50,GIPR [1],3.8 pM
same,AUC(0-inf),in vivo; iv,302 µg·h/mL
same,AUC(0-t),in vivo; iv,278 µg·h/mL
same,Vd,in vivo; iv,0.0626 L/kg
same,clearance,in vivo; iv,16 mL/day/kg
same,half-life,in vivo; iv,88.3 h
same,AUC(0-t),in vivo; sc,199 µg·h/mL
same,Cmax,in vivo; sc,1760 ng/mL
same,Tmax,in vivo; sc,18.3 h
same,bioavailability,in vivo; sc,75.7%
same,half-life,in vivo; sc,97.2 h
same,EC50,GIPR [2],18.9 pM
